How the values were obtained:
Format in all cases: cell-based
human neutrophils [1] = test: Neutrophil migration (chemotaxis) to serum-treated glucan
Description: This ability was measured by comparing the migratory capacity of human neutrophils to parent medium molecular weight (MMW) yeast β-glucan versus one of its derivatives, BT-1222. […] In contrast, the migration of neutrophils to MMW β-glucan or BT-1222 was 3.1 fold and 2.8 fold over medium alone, respectively.
Heparinized peripheral blood was obtained from healthy volunteers, and neutrophils were isolated by density gradient centrifugation with Ficoll-Paque followed by 3% […] sedimentation. Residual erythrocytes were removed by hypotonic lysis. Neutrophils were resuspended at 200,000 cells/ml in RPMI with 3% autologous serum (AS). MMW (3.3 mg/mL), BT-1222 (3.3 mg/mL) and PBS control were mixed with AS in 1:1 ratio and placed in a 37° C. water bath for 30 minutes. After incubation, Imprime and benzylamine-Imprime were diluted in RPMI to achieve 100, 50, 25, and 10 μg/ml concentrations with final concentration of serum being 3%. PBS control was diluted in a similar manner. […] The plate was placed in 37° C. incubator for 1 hour, lysed with 10 μl Cell-titer glo and read for luminescence on the M5 plate reader. Fold over media migration (chemotaxis) was calculated by dividing the RLU (relative luminescence units) for the treatment groups over migration to media (chemokinesis).

human neutrophils [2] = test: iC3b deposition on neutrophils (flow cytometry)
Description: This ability was evaluated by comparing the levels of iC3b complement fragment detected on human neutrophils with the derivative versus parent β-glucan-bound.
Enriched neutrophils were resuspended at 1×10^6 cells/mL in RPMI 1640 supplemented with 10% serum. The parent or the derivatized glucans at 200, μg/mL hexose concentration were added to neutrophils and incubated in a 37° C., 5% C02 humidified incubator for 2 hr. After incubation, cells were washed twice with FACS buffer (HBSS supplemented with 1% FBS and 0.1% sodium azide) to remove any unbound β-glucan, stained with a neo-epitope specific anti-iC3b Ab and PE-conjugated goat anti-mouse IgG and subsequently analyzed by flow cytometry.
Table 1 below lists the fold change of mean fluorescence intensity (MFI) values of iC3b staining on neutrophils treated with each of the parent or derivatized glucans over that of PBS control-treated cells.

human neutrophils [3] = test: β-glucan binding on neutrophils (BfD IV staining, flow cytometry)
Description: This ability was evaluated by comparing the levels of neutrophil-bound parent versus the derivatives of β-glucans detected by BfD IV, a monoclonal antibody (MAb) specific for β-1,3/1,6 glucans. […] Table 2 lists the fold change of MFI values of BfD IV staining on neutrophils treated with each of the parent and derivatized glucans over that of PBS control-treated cells.
Enriched neutrophils were resuspended at 1×10^6 cells/mL in RPMI 1640 supplemented with 10% serum. The parent or the derivatized glucans at 200, μg/mL hexose concentration were added to neutrophils and incubated in a 37° C., 5% CO2 humidified incubator for 2 hr. After incubation, cells were washed twice with FACS buffer (HBSS supplemented with 1% FBS and 0.1% sodium azide) to remove any unbound β-glucan, and subsequently treated with Fc block. Post Fc block step, cells were stained with the BfD IV Ab for 30 min at 4° C. and washed twice with cold FACS buffer. Cells were then incubated with FITC-conjugated F(ab′)2 goat anti-mouse IgM for 30 min at 4° C. and washed once with cold FACS buffer before fixing with 1% paraformaldehyde. Events were collected on a LSRII flow cytometer and analysis was performed using FlowJo software.
Table 2 summarizes the fold change of MFI values of BfD IV staining on neutrophils treated with each of the parent, or derivatized β-glucans, over that of PBS control-treated cells.

[4] = system: human peripheral blood mononuclear cells; test: Oxidative burst (superoxide production by cytochrome c reduction) on immobilized glucan; settings: human PBMCs
Description: Dilutions of MMW and BT-1222 were prepared out-of-plate in water. Subsequently, 50 μL of each dilution were added to triplicate wells of Costar® Universal-Bind™ microtiter plates. For immobilizing the glucans on the plate, the plate was irradiated for 5 min in a UV cross-linker, and then incubated at 50° C. until completely dried. After checking for complete dryness of the plate, it was cross-linked again under UV for 5 minutes. The microtiter plates were then blocked with 0.25% bovine serum albumin (BSA) in DPBS for 30 min at room temperature. Each microtiter plate included positive control wells and negative control wells to which only water with no polysaccharide was added at this point.
The oxidative burst response was then determined by standard methods by measuring SO production through the reduction of cytochrome c. Peripheral blood mononuclear cells (PBMCs) were resuspended in HBSS/HEPES buffer with 0.25% BSA at a concentration of 4×10^6 cells/mL and maintained at 37° C. until added to the plate. A 100 μL aliquot of 200 μM bovine cytochrome c solution in HBSS/HEPES buffer previously incubated at 37° C. was added to each well. Approximately 4.0×10^5 cells, in a 100 μL volume, were subsequently added to each well of the microtiter plate. The negative assay control consisting of cells and cytochrome c was added in the uncoated negative control wells. As a positive assay control, just before reading the plate, phorbol myristate acetate (PMA) at 100 ng/mL was added as the stimulus to the cells in the uncoated positive control wells to achieve a final concentration of 50 ng/mL. The plate was maintained at 37° C., and optical density (OD) in each well was read at 550 nm every 15 min for 120 min using a spectrophotometer. For each concentration of polysaccharide, the OD change (ΔOD) was calculated from the time of minimum response (1 min) to the time of maximum response (120 mins). The rate of SO production (nmoles of SO/10^6 cells/120 mins) was calculated from the ΔOD value and the extinction coefficient of cytochrome c (21.1×103 M-1 cm-1). […]

[5] = 200 μg/mL hexose concentration, 2 hr, 37° C., 10% serum

Benzyl Amine MMW Yeast Glucan Analog [BT-1222]
migration of neutrophils compared with parent MMW (human neutrophils [1]; FIG. 2): comparable
migration of neutrophils, fold over medium alone (human neutrophils [1]; glucan pre-incubated with autologous serum, 1 hour at 37° C.): 2.8 fold
Approximate Fold Increase/Decrease in MFI over Parent Compound (iC3b) (human neutrophils [2]; [5]): 3.0 fold
MFI(ic3b) compound/MFI(ic3b) PBS (human neutrophils [2]; [5]): 5.9 ± 2.2
staining of iC3b on glucan-bound neutrophils compared with MMW-bound neutrophils (human neutrophils [2]; FIG. 3 histogram): higher
Approximate Fold Increase/Decrease in MFI over Parent Compound (BfD IV) (human neutrophils [3]; [5]): 3.1 fold
MFI(BID IV) compound/MFI(BID IV) PBS (human neutrophils [3]; [5]): 13.2 ± 3.6
staining of BfD IV on glucan-bound neutrophils compared with MMW-bound neutrophils (human neutrophils [3]; histogram): higher
rate of superoxide production in comparison to MMW ([4]; at each concentration tested): higher
oxidative burst as measured by rate of superoxide production ([4]; plate-immobilized glucan, 120 min): dose dependent oxidative burst

De-Branched Scleroglucan Analog [BT-1322]
oxidative burst compared with parent scleroglucan and parent MMW yeast β-glucan ([4]; FIG. 5): higher oxidative burst

From patent publication US20140228543A1, “MODIFIED AND DERIVATIZED ß-GLUCAN COMPOUNDS, COMPOSITIONS, AND METHODS” (Biothera, Inc., priority 2011, published 2014)
